Earlier results in paper PMC7027746 (Clinical Pharmacology in Drug Development, 2019).

Experiments:
ALK = conditions: in vitro; cited from earlier work
[1] = single 180‐mg oral dose of [14C]‐brigatinib, healthy volunteers; cited from earlier work

COc1cc(N2CCC(N3CCNCC3)CC2)ccc1Nc1ncc(Cl)c(Nc2ccccc2P(C)(C)=O)n1 [N‐desmethyl brigatinib]
ALK inhibition potency, fold lower than brigatinib (ALK): approximately 3 fold | share of circulating radioactive components [1]: 3.5%
